According to patent US20240101971A1 (Biogen MA Inc., priority 2021, published 2024):
Counter-ions that a name gives are not always drawn.

How the values were obtained:
suspension HEK293 cells [1] = experiment: rAAV production at manufacturing scale, batch and fed batch bioreactors, suspension HEK293 cells, Payload A; format: cell-based; conditions: added 0.5 hours post-transfection
Method: Scalability of microtubule destabilizing agents (colcemid and colchicine) for production of rAAV was also assessed in batch bioreactors and larger volume fed batch bioreactors for manufacturing scale. Suspension HEK293 cells were transiently transfected with plasmids encoding Payload A flanked by an ITR on either side, at least one Rep polypeptide, at least one Cap polypeptide, and at least one helper polypeptide, colcemid was added at 0.5 hours post-transfection, and cells were cultured in 3-liter batch bioreactors or 250-liter fed bioreactors for a period of time e.g., several days prior to sampling.

suspension HEK293 cells [2] = experiment: FACS analysis (propidium iodide) of cell cycle phase of non-transfected suspension HEK293 cultures; format: cell-based; conditions: for cell synchronization, cell cycle phase by FACS: 24 hours with agent, non-transfected suspension HEK293 cultures, FIG. 2A
Method: Cell cycle phase of non-transfected, suspension HEK293 cultures was evaluated using fluorescence activated cell sorting (FACS). Suspension HEK293 cultures were grown in shake flasks for 24 hours with cycle arresting agents (aphidicolin, caffeine, colcemid, colchicine, flavopiridol, hydroxyurea, thymidine, trichostatin A, and vinblastine sulfate) prior to sampling for FACS analysis using propidium iodide (PI), which binds to DNA. Light intensity is indicative of the relative quantity of DNA present in a cell, which is a measure of cell phase. Forward scatter indicates the a size of a cell, while side scatter indicates the a size of intracellular components. Fluorescence of PI was measured using an excitation of 493 nm and emission of 646 nm.

SMILES | rAAV particle titer relative to controls (suspension HEK293 cells [1]; 3-liter batch bioreactors, FIG. 8A) | rAAV particle titer relative to controls (suspension HEK293 cells [1]; 250-liter fed bioreactors, FIG. 8B-8C) | cell synchronization, cell cycle phase by FACS (suspension HEK293 cells [2]) | cell cycle arrest, phase (suspension HEK293 cells [2]; suspension HEK293 cell cultures, FIG. 2B)
CN[C@H]1CCc2cc(OC)c(OC)c(OC)c2-c2ccc(OC)c(=O)cc21 [colcemid, N-deacetyl-N-methylcolchicine] | increase | increase | G2 phase | G2/M phase
CC[C@]1(O)C[C@H]2C[N@](CCc3c([nH]c4ccccc34)[C@@](C(=O)OC)(c3cc4c(cc3OC)N(C)[C@H]3[C@@](O)(C(=O)OC)[C@H](OC(C)=O)[C@]5(CC)C=CCN6CC[C@]43[C@@H]65)C2)C1 [vinblastine sulfate, vincaleukoblastine] | – | – | G2 phase | –
COc1cc2c(c(OC)c1OC)-c1ccc(OC)c(=O)cc1[C@@H](NC(C)=O)CC2 [colchicine, (S)—N-(5,6,7,9-tetrahydro-1,2,3,10-tetramethoxy-9-oxobenzo[a]heptalen-7-yl)acetamide] | – | – | G2 phase | –
